Legend:
crabgrass, Brazilian = assay: Test E postemergence; assay type: in vivo, Digitaria horizontalis; conditions: Brazil, scale 0 to 100
Excerpt: (§1) Seeds of plant species selected from corn (Zea mays), soybean (Glycine max), lambsquarters (Chenopodium album), poinsettia, wild (wild poinsettia, Euphorbia heterophylla), pigweed, palmer (palmer pigweed, Amaranthus palmeri), waterhemp (common waterhemp, Amaranthus rudis), surinam grass (Brachiaria decumbens), crabgrass, large (large crabgrass, Digitaria sanguinalis), crabgrass, Brazilian (Brazilian crabgrass, Digitaria horizontalis), panicum, fall (fall panicum, Panicum dichotomiflorum), foxtail, giant (giant foxtail, Setaria faberii), foxtail, green (green foxtail, Setaria viridis), goosegrass (Eleusine indica), johnsongrass (Sorghum halepense), ragweed (common ragweed, Ambrosia elatior), barnyardgrass (Echinochloa crus-galli), sandbur (southern sandbur, Cenchrus echinatus), arrowleaf sida (Sida rhombifolia), ryegrass, Italian (Italian ryegrass, Lolium multiflorum), dayflower, VA (Virginia dayflower, Commelina virginica), field bindweed (Convolvulus arvensis), cocklebur (common cocklebur, Xanthium strumarium), morningglory (Ipomoea coccinea), nightshade (eastern black nightshade, Solanum ptycanthum), kochia (Kochia scoparia), nutsedge, yellow (yellow nutsedge, Cyperus esculentus), smartweed (ladysthumb smartweed, Polygonum persicaria), velvetleaf (Abutilon theophrasti), horseweed (Conyza canadensis), and beggarticks (hairy beggarticks, Bidens pilosa), were planted into a silt loam soil and treated preemergence with test chemicals formulated in a non-phytotoxic solvent mixture which included a surfactant.
(§2) At the same time, plants from these crop and weed species and also waterhemp_RES1, (ALS & Triazine resistant common waterhemp, Amaranthus rudis), and waterhemp_RES2, (ALS & HPPD resistant common waterhemp, Amaranthus rudis) were planted in pots containing Sunshine Redi-Earth® planting medium comprising spaghnum peat moss, vermiculite, starter nutrients and dolomitic limestone were treated with postemergence applications of test chemicals formulated in the same manner. Plants ranged in height from 2 to 18 cm for postemergence treatments (1- to 4-leaf stage). Treated plants and controls were maintained in a greenhouse for 14 to 21 d, after which time all species were compared to controls and visually evaluated. Plant response ratings, summarized in Table E, are based on a scale of 0 to 100 where 0 is no effect and 100 is complete control. A dash (-) response means no test result.

sandbur = assay: Test E postemergence; assay type: in vivo, Cenchrus echinatus; conditions: scale 0 to 100
Excerpt: as §1, §2

panicum, fall = assay: Test E postemergence; assay type: in vivo, Panicum dichotomiflorum; conditions: scale 0 to 100
Excerpt: as §1, §2

pigweed, palmer [1] = assay: Test E preemergence; assay type: in vivo, Amaranthus palmeri; conditions: scale 0 to 100
Excerpt: as §1, §2

corn = assay: Test E preemergence; assay type: in vivo, Zea mays; conditions: scale 0 to 100
Excerpt: as §1, §2

waterhemp [2] = assay: Test E postemergence; assay type: in vivo, Amaranthus rudis; conditions: scale 0 to 100
Excerpt: as §1, §2

[3] = tested on: waterhemp_RES1 (ALS & Triazine resistant common waterhemp); assay: Test E postemergence; assay type: in vivo, Amaranthus rudis; conditions: scale 0 to 100
Excerpt: as §1, §2

[4] = tested on: waterhemp_RES2 (ALS & HPPD resistant common waterhemp); assay: Test E postemergence; assay type: in vivo, Amaranthus rudis; conditions: scale 0 to 100
Excerpt: as §1, §2

arrowleaf sida [5] = assay: Test E postemergence; assay type: in vivo, Sida rhombifolia; conditions: scale 0 to 100
Excerpt: as §1, §2

ragweed = assay: Test E preemergence; assay type: in vivo, Ambrosia elatior; conditions: scale 0 to 100
Excerpt: as §1, §2

kochia [6] = assay: Test E preemergence; assay type: in vivo, Kochia scoparia; conditions: scale 0 to 100
Excerpt: as §1, §2

waterhemp [7] = assay: Test E preemergence; assay type: in vivo, Amaranthus rudis; conditions: scale 0 to 100
Excerpt: as §1, §2

johnsongrass = assay: Test E preemergence; assay type: in vivo, Sorghum halepense; conditions: scale 0 to 100
Excerpt: as §1, §2

arrowleaf sida [8] = assay: Test E preemergence; assay type: in vivo, Sida rhombifolia; conditions: scale 0 to 100
Excerpt: as §1, §2

pigweed, palmer [9] = assay: Test E postemergence; assay type: in vivo, Amaranthus palmeri; conditions: scale 0 to 100
Excerpt: as §1, §2

soybean = assay: Test E postemergence; assay type: in vivo, Glycine max; conditions: scale 0 to 100
Excerpt: as §1, §2

field bindweed = assay: Test E preemergence; assay type: in vivo, Convolvulus arvensis; conditions: scale 0 to 100
Excerpt: as §1, §2

beggarticks = assay: Test E postemergence; assay type: in vivo, Bidens pilosa; conditions: scale 0 to 100
Excerpt: as §1, §2

dayflower, VA = assay: Test E postemergence; assay type: in vivo, Commelina virginica; conditions: scale 0 to 100
Excerpt: as §1, §2

kochia [10] = assay: Test E postemergence; assay type: in vivo, Kochia scoparia; conditions: scale 0 to 100
Excerpt: as §1, §2

SMILES: CCc1nc(-c2ccc(C(F)(F)F)cc2)nn1Cc1ccnc(C(F)(F)F)c1 [Compound 1, 4-[[5-ethyl-3-[4-(trifluoromethyl)phenyl]-1H-1,2,4-triazol-1-yl]methyl]-2-(trifluoromethyl)pyridine]
- Plant response rating (crabgrass, Brazilian; 16 g ai/ha): 20
- Plant response rating (crabgrass, Brazilian; 31 g ai/ha): 20
- Plant response rating (crabgrass, Brazilian; 62 g ai/ha): 30
- Plant response rating (crabgrass, Brazilian; 125 g ai/ha): 30
- Plant response rating (crabgrass, Brazilian; 250 g ai/ha): 40
- Plant response rating (sandbur; 16 g ai/ha): 10
- Plant response rating (sandbur; 31 g ai/ha): 15
- Plant response rating (sandbur; 62 g ai/ha): 15
- Plant response rating (sandbur; 125 g ai/ha): 20
- Plant response rating (sandbur; 250 g ai/ha): 20
- Plant response rating (panicum, fall; 16 g ai/ha): 10
- Plant response rating (panicum, fall; 31 g ai/ha): 20
- Plant response rating (panicum, fall; 62 g ai/ha): 20
- Plant response rating (panicum, fall; 125 g ai/ha): 20
- Plant response rating (panicum, fall; 250 g ai/ha): 30
- Plant response rating (pigweed, palmer [1]; 16 g ai/ha): 80
- Plant response rating (pigweed, palmer [1]; 62 g ai/ha): 98
- Plant response rating (pigweed, palmer [1]; 125 g ai/ha): 100
- Plant response rating (pigweed, palmer [1]; 250 g ai/ha): 100
- Plant response rating (corn; 16 g ai/ha): 0
- Plant response rating (corn; 31 g ai/ha): 0
- Plant response rating (corn; 62 g ai/ha): 10
- Plant response rating (corn; 125 g ai/ha): 25
- Plant response rating (corn; 250 g ai/ha): 35
- Plant response rating (waterhemp [2]; 16 g ai/ha): 65
- Plant response rating (waterhemp [2]; 31 g ai/ha): 80
- Plant response rating (waterhemp [2]; 62 g ai/ha): 90
- Plant response rating (waterhemp [2]; 125 g ai/ha): 95
- Plant response rating (waterhemp [2]; 250 g ai/ha): 95
- Plant response rating ([3]; 16 g ai/ha): 90
- Plant response rating ([3]; 31 g ai/ha): 90
- Plant response rating ([3]; 62 g ai/ha): 90
- Plant response rating ([3]; 125 g ai/ha): 95
- Plant response rating ([3]; 250 g ai/ha): 95
- Plant response rating ([4]; 16 g ai/ha): 80
- Plant response rating ([4]; 31 g ai/ha): 85
- Plant response rating ([4]; 62 g ai/ha): 85
- Plant response rating ([4]; 125 g ai/ha): 90
- Plant response rating ([4]; 250 g ai/ha): 95
- Plant response rating (arrowleaf sida [5]; 16 g ai/ha): 30
- Plant response rating (arrowleaf sida [5]; 31 g ai/ha): 40
- Plant response rating (arrowleaf sida [5]; 62 g ai/ha): 50
- Plant response rating (arrowleaf sida [5]; 125 g ai/ha): 70
- Plant response rating (arrowleaf sida [5]; 250 g ai/ha): 85
- Plant response rating (ragweed; 16 g ai/ha): 0
- Plant response rating (ragweed; 31 g ai/ha): 10
- Plant response rating (ragweed; 62 g ai/ha): 35
- Plant response rating (ragweed; 125 g ai/ha): 65
- Plant response rating (ragweed; 250 g ai/ha): 75
- Plant response rating (kochia [6]; 16 g ai/ha): 20
- Plant response rating (kochia [6]; 31 g ai/ha): 60
- Plant response rating (kochia [6]; 62 g ai/ha): 80
- Plant response rating (kochia [6]; 125 g ai/ha): 90
- Plant response rating (kochia [6]; 250 g ai/ha): 95
- Plant response rating (waterhemp [7]; 16 g ai/ha): 20
- Plant response rating (waterhemp [7]; 31 g ai/ha): 95
- Plant response rating (waterhemp [7]; 62 g ai/ha): 95
- Plant response rating (waterhemp [7]; 125 g ai/ha): 100
- Plant response rating (waterhemp [7]; 250 g ai/ha): 100
- Plant response rating (johnsongrass; 16 g ai/ha): 10
- Plant response rating (johnsongrass; 31 g ai/ha): 15
- Plant response rating (johnsongrass; 62 g ai/ha): 40
- Plant response rating (johnsongrass; 125 g ai/ha): 50
- Plant response rating (johnsongrass; 250 g ai/ha): 60
- Plant response rating (arrowleaf sida [8]; 16 g ai/ha): 0
- Plant response rating (arrowleaf sida [8]; 31 g ai/ha): 10
- Plant response rating (arrowleaf sida [8]; 62 g ai/ha): 20
- Plant response rating (arrowleaf sida [8]; 125 g ai/ha): 20
- Plant response rating (arrowleaf sida [8]; 250 g ai/ha): 50
- Plant response rating (pigweed, palmer [9]; 16 g ai/ha): 80
- Plant response rating (pigweed, palmer [9]; 31 g ai/ha): 90
- Plant response rating (pigweed, palmer [9]; 62 g ai/ha): 90
- Plant response rating (pigweed, palmer [9]; 125 g ai/ha): 100
- Plant response rating (pigweed, palmer [9]; 250 g ai/ha): 100
- Plant response rating (soybean; 16 g ai/ha): 40
- Plant response rating (soybean; 31 g ai/ha): 40
- Plant response rating (soybean; 62 g ai/ha): 50
- Plant response rating (soybean; 125 g ai/ha): 50
- Plant response rating (soybean; 250 g ai/ha): 65
- Plant response rating (field bindweed; 16 g ai/ha): 0
- Plant response rating (field bindweed; 31 g ai/ha): 10
- Plant response rating (field bindweed; 62 g ai/ha): 30
- Plant response rating (field bindweed; 125 g ai/ha): 40
- Plant response rating (field bindweed; 250 g ai/ha): 50
- Plant response rating (beggarticks; 16 g ai/ha): 20
- Plant response rating (beggarticks; 31 g ai/ha): 40
- Plant response rating (beggarticks; 62 g ai/ha): 40
- Plant response rating (beggarticks; 125 g ai/ha): 50
- Plant response rating (beggarticks; 250 g ai/ha): 60
- Plant response rating (dayflower, VA; 16 g ai/ha): 20
- Plant response rating (dayflower, VA; 31 g ai/ha): 25
- Plant response rating (dayflower, VA; 62 g ai/ha): 40
- Plant response rating (dayflower, VA; 125 g ai/ha): 50
- Plant response rating (dayflower, VA; 250 g ai/ha): 50

SMILES: COc1nc(-c2ccc(Cl)cc2)nn1Cc1ccnc(C(F)(F)F)c1 [Compound 28]
- Plant response rating (crabgrass, Brazilian; 31 g ai/ha): 40
- Plant response rating (crabgrass, Brazilian; 62 g ai/ha): 50
- Plant response rating (crabgrass, Brazilian; 125 g ai/ha): 50
- Plant response rating (crabgrass, Brazilian; 250 g ai/ha): 50
- Plant response rating (sandbur; 31 g ai/ha): 20
- Plant response rating (sandbur; 62 g ai/ha): 30
- Plant response rating (sandbur; 125 g ai/ha): 30
- Plant response rating (sandbur; 250 g ai/ha): 40
- Plant response rating (kochia [10]; 31 g ai/ha): 90
- Plant response rating (kochia [10]; 62 g ai/ha): 95
- Plant response rating (kochia [10]; 125 g ai/ha): 95
- Plant response rating (kochia [10]; 250 g ai/ha): 95
- Plant response rating (panicum, fall; 31 g ai/ha): 15
- Plant response rating (panicum, fall; 62 g ai/ha): 20
- Plant response rating (panicum, fall; 125 g ai/ha): 20
- Plant response rating (panicum, fall; 250 g ai/ha): 20
- Plant response rating (waterhemp [2]; 31 g ai/ha): 90
- Plant response rating (waterhemp [2]; 62 g ai/ha): 90
- Plant response rating (waterhemp [2]; 125 g ai/ha): 95
- Plant response rating (waterhemp [2]; 250 g ai/ha): 95
- Plant response rating ([3]; 31 g ai/ha): 95
- Plant response rating ([3]; 62 g ai/ha): 95
- Plant response rating ([3]; 125 g ai/ha): 95
- Plant response rating ([3]; 250 g ai/ha): 95
- Plant response rating ([4]; 31 g ai/ha): 95
- Plant response rating ([4]; 62 g ai/ha): 90
- Plant response rating ([4]; 125 g ai/ha): 90
- Plant response rating ([4]; 250 g ai/ha): 95
- Plant response rating (arrowleaf sida [5]; 31 g ai/ha): 70
- Plant response rating (arrowleaf sida [5]; 62 g ai/ha): 80
- Plant response rating (arrowleaf sida [5]; 125 g ai/ha): 80
- Plant response rating (arrowleaf sida [5]; 250 g ai/ha): 75
- Plant response rating (pigweed, palmer [9]; 31 g ai/ha): 100
- Plant response rating (pigweed, palmer [9]; 62 g ai/ha): 90
- Plant response rating (pigweed, palmer [9]; 125 g ai/ha): 90
- Plant response rating (pigweed, palmer [9]; 250 g ai/ha): 95
- Plant response rating (soybean; 31 g ai/ha): 70
- Plant response rating (soybean; 62 g ai/ha): 75
- Plant response rating (soybean; 125 g ai/ha): 95
- Plant response rating (soybean; 250 g ai/ha): 80
- Plant response rating (beggarticks; 31 g ai/ha): 50
- Plant response rating (beggarticks; 62 g ai/ha): 60
- Plant response rating (beggarticks; 125 g ai/ha): 50
- Plant response rating (beggarticks; 250 g ai/ha): 60
- Plant response rating (dayflower, VA; 31 g ai/ha): 60
- Plant response rating (dayflower, VA; 62 g ai/ha): 70
- Plant response rating (dayflower, VA; 125 g ai/ha): 70
- Plant response rating (dayflower, VA; 250 g ai/ha): 70

— patent US10681909B2, “Herbicidal triazoles” (FMC Corporation, priority 2014, dated 2020)
